Laboratory results: US20020187484A1, “Molecular break lights probes for detecting nucleotide cleavage” (priority 2000, published 2002)
Marks after values point to notes of the source that are not given here.

Columns and labels:
Assay type in all cases: biochemical
[1] = tested on: supercoiled pBlusecript plasmid DNA; assay: Calicheamicin-induced cleavage of supercoiled plasmid DNA, protection by CalC (agarose gel)
Experimental: Prevention of cleavage by calicheamicin—protection by CalC was assessed. […] To test this theory, preliminary assays were performed with supercoiled pBlusecript plasmid DNA (“pBS”) as the template, and dithiothreitol (“DTT”) as the reductive initiator. […] Then 2.5 μL 10 mM DTT stock solution was added to the assay solution, and the assay was incubated an additional 1 hour at 37° C. DNA fragmentation was assessed by electrophoresis on a 1% agarose gel stained with ethidium bromide.
To test this theory, assays were performed with supercoiled pblusecript plasmid DNA (“pBS”) as the template, and dithiothreitol (“DTT”) as the reductive initiator. […] 2.5 μL 10 mM DTT stock solution was added to the assay solution, and the assay was incubated an additional 1 hour at 37° C.
DNA fragmentation was assessed by electrophoresis on a 1% agarose gel stained with ethidium bromide.

[2] = tested on: break light A; assay: Molecular break light assay: cleavage of break light A by enediynes and Fe^+2-dependent agents
Experimental: Samples were analyzed with a FluoroMax-2 spectrofluorometer equipped with DataMax for Windows (Instruments S. A., Inc.; Edison, N.J.) and the temperature controlled (30° C., unless otherwise noted) by a Haake Circulator DC10. All samples were filtered prior to analysis and analyzed via a timebase scan (λex=485 nm, λEm=517 nm) in a Suprasil quartz cuvette (10 mm path) fitted with a magnetic stirring bar in a total volume of 2 mL. […] Total cleavage of the labeled oligonucleotide, confirmed by polyacrylamide gel electrophoresis (PAGE), was defined as the maximum fluorescence emission possible under saturated cleaving conditions. Emission units were converted to the amount of labeled oligonucleotide used within a procedure, thereby equating labeled oligonucleotide degradation as a function of the emission of fluorescence.
Enediyne antibiotics calicheamicin and esperamicin at varying concentrations (0.31, 0.78, 1.6, 3.2, 15.9, and 31.7 nM) were incubated in 40 mM Tris-HCl (pH 7.5) with 3.2 nM of the calicheamicin-specific labeled molecular break light oligonucleotide (A). DNA cleavage was initiated with the addition of 1 μL 100 mM dithiothreitol (“DTT”) to produce a final concentration of 50 μM DTT, and the reaction was monitored over 10 minutes via spectrofluorometry.
Pseudo-first order kinetic parameters were utilized to determine the initial velocities at each given enediyne concentration. Specifically, graphical representation of the data was based upon equation 2 where [A]t is the concentration of cleaved oligonucleotide at a given time (t) and [A]0 is the initial concentration of oligonucleotide in the assay. Least squares analysis gave the slope (k), or rate, which was converted to V by the relationship in equation 3. The maximum velocity achieved (Vmax) was then selected from the range of concentrations examined.
ln[A]t=−kt+ln[A]0 [Equation 2]
Bleomycin, an Fe^+2-dependent nucleic acid cleavage agent, is a natural metabolite from Streptomyces verticillus. Blenoxane (a mixture containing approximately 70% bleomycin A2 and 30% bleomycin B2) was dissolved in water & optically standardized (ε291=1.7×10^4M^−1 cm^−1). Bleomycin mediated cleavage was adapted from procedures outlined by Giloni et al. J. Biol. Chem. 256: 8608-8615 (1981). Several different concentrations of bleomycin (200 nM, 100 nM, 50 nM, 25 nM, 12.5 nM, 5 nM, and 2.5 nM) were incubated in 50 mM sodium phosphate, 2.5 mM ascorbate, at pH 7.5 and 37° C. with 3.2 nM of the molecular break light A.
The reaction was initiated by the addition of 65 mM Fe(II) and monitored over 5 minutes. This protocol was repeated with the addition of 5 mM sodium ascorbate to the above conditions. Pseudo-first order kinetic parameters were utilized to determine the initial velocities at each given bleomycin concentration as previously described.
In a first assay, 3.2 nM break light A was incubated in 40 mM Tris HCl and 2.5 mM ascorbate at 37° C. and pH 7.5. Cleavage was initiated by addition of MPE/Fe(II) in a 1.2:1 molar ratio to various concentrations. Final Fe(II) concentrations were 8 μM, 4 μM, 2 μM, 1 μM, 500 nM, 250 nM, and 125 nM.
In a second assay, 32 nM molecular break light A was incubated in 40 mM Tris and 2.5 mM sodium ascorbate at pH 7.5 and 37° C. Cleavage was initiated by addition of MPE/Fe(II) in a 1.2:1 molar ratio to various concentrations. Final Fe(II) concentrations were 50 nM, 125 nM, 250 nM, 500 nM, 1 μM, and 2 μM.
In a third assay, 32 nM break light A (calicheamicin-specific molecular break light oligonucleotide) was incubated in 40 mM Tris and 2.5 mM sodium ascorbate at pH 7.5 and 37° C.

[3] = tested on: break light B; assay: Calicheamicin cleavage of break light B; conditions: calicheamicin with DTT

## CCN[C@H]1CO[C@@H](O[C@H]2[C@H](O[C@H]3C#C/C=C/C#C[C@@]4(O)CC(=O)C(NC(=O)OC)=C3/C4=C\CSSSC)O[C@H](C)[C@@H](NO[C@H]3C[C@H](O)[C@H](SC(=O)c4c(C)c(I)c(O[C@@H]5O[C@@H](C)[C@H](O)[C@@H](OC)[C@H]5O)c(OC)c4OC)[C@@H](C)O3)[C@@H]2O)C[C@@H]1OC [Calicheamicinγ1^l, calicheamicin γ1^I]
[1]; calicheamicin in the absence of DTT (lane a)
  DNA cleavage: no DNA cleavage
[1]; presence of DTT and calicheamicin (lane c)
  DNA cleavage: efficient cleavage
[2]; 3.2 nM break light A, conditions described
  detection of agent by the assay (sensitivity range): pM range
[2]; 3.2 nM break light A, excess DTT
  maximum fluorescence upon cleavage, compared with DNaseI: identical to that observed with DNaseI
[2]; [DNA]total = 3.2 nM
  Turnover (Vmax/[Agent]): 0.007 s⁻¹
[2]; [DNA]total = 3.2 nM, 37° C.
  Vmax: 0.011 ± 0.002^d nM sec^−1
[2]; [DNA]total = 3.2 nM, MPE as common agent
  Comparison to EDTA (fold enhancement over EDTA turnover): 4.8 × 10^5 fold
[2]; from Table 1
  enhancement of cleavage efficiency over bleomycin: ~10 fold
[3]
  rate of cleavage of break light B compared with break light A: rate identical to that of break light A
